The values below come from patent publication US10239851B2 (priority 2014, dated 2019).

Molecules are shown by their SMILES. Like-named read-outs stand apart in the source and are kept apart here.

The conditions of data set [1]: rats, 5 mg/kg intravenous, 5 min after administration.
Description: After 5 min of administration, 0.3 ml of venous blood was taken from the retrobulbar venous plexus of the rats, placed in heparinized tubes, and centrifuged at 11,000 rpm for 5 min. Blood plasma was separated, and the concentrations of the compounds in the blood plasma were determined by liquid chromatography-mass spectrometry.
The nature of data set [2]: In vitro dissociation of the water soluble taxane derivatives in blood plasma of rabbit. Format: in vitro ADME, New Zealand white rabbits. The settings on record: 37° C. On the procedure: The obtained water soluble taxane derivatives were formulated as 0.2 mg/ml aqueous solutions. […] After 5 min, 20 min and 60 min of incubation, 0.2 ml of solutions were respectively taken from each of the samples, and added to acetonitrile (0.4 ml) cooled to −20° C. for precipitation of protein.

A short description of data set [3]: In vitro dissociation of the water soluble taxane derivatives in blood plasma of rat. The note with it: 37° C. Format: in vitro ADME, SD rats. On the procedure:
The obtained water soluble taxane derivatives were formulated as 0.2 mg/ml aqueous solutions. […] After 2 min, 5 min and 10 min of incubation, 0.2 ml of solutions were respectively taken from each of the samples, and added to acetonitrile (0.4 ml) cooled to −20° C. for precipitation of protein.

The conditions of data set [4]: rats, 5 mg/kg intravenous, 5 min after administration. The source holds these as a separate data set.
Description: After 5 min of administration, 0.3 ml of venous blood was taken from the retrobulbar venous plexus of the rats, placed in heparinized tubes, and centrifuged at 11,000 rpm for 5 min. Plasma was separated, and the concentrations of the compounds in the plasma were determined by liquid chromatography □-mass spectrometry.
Data set [5] relates to mice. The settings on record: cited from earlier work.
The subject of data set [6] is SD rats. The experiment in a line: ED50 and LD50 test concerning anesthesia (sequential method) in rats. In kind it is in vivo. The settings on record: for ED50: Rattus norvegicus, anesthesia (loss of righting reflex); for ED50 / Rat LD50: caudal vein injection.
Description: (§1) Test samples for the experiment on rabbit were formulated to have corresponding concentrations based on the results from a preliminary test. […] Rats and mice were administered with samples having a fixed concentration of drugs, while the volume of administration altered according to actual situation. The volume of administration to rabbits was 1 mL/kg body weight.
(§2) ED50 and LD50 values concerning anesthesia were determined using a sequential method. Healthy KM mice (male), SD rats (male) and New Zealand White rabbits were used for test. […] For rabbits, the compounds were administered by injection at a constant rate via ear vein for 30 seconds. Before the test, a preliminary test was conducted to determine an approximate dosage (volume of administration) that leads to anesthetization (or death) of animals, which was set as the middle dosage in the formal test. […] The disappearance of righting reflex or death was used as indicators of pharmacological efficacy or toxicity, respectively. The formal test began with the administration of the middle dosage. If animals were anesthetized, a lower dosage was administered; if animals were not anesthetized, a higher dosage was administered, until the cycle was repeated for 3-4 times. LD50 and ED50 were calculated by a sequential method aot425 software. TI was calculated according to the following equation: TI=LD50/ED50.
Data set [7] concerns Kunming mice. The experiment in a line: Latent period and persistent period of anesthesia in mice. Format: in vivo.
The subject of data set [8] is KM mice. The experiment in a line: ED50 and LD50 test concerning anesthesia (sequential method) in mice. The settings on record: confirmation test; for ED50: Mus musculus, anesthesia (loss of righting reflex); for ED50 / Mouse LD50: caudal vein injection. In kind it is in vivo.
Description: as §1, §2
Where [9] appears, read: dosage 1.25 * ED50 (propofol 15 mg/kg, fospropofol 85 mg/kg).
The mark [10] stands for this setting: fospropofol 136 mg/kg (2 * ED50).
[11] abbreviates: intravenous injection, dosage 2 * ED50, 3 mg/ml solution.
Where [12] appears, read: propofol 25 mg/kg (2 * ED50), results from the present lab.

Consider `CC(=O)O[C@H]1C(=O)[C@@]2(C)[C@H]([C@H](OC(=O)c3ccccc3)[C@]3(O)C[C@H](OC(=O)[C@H](OC(=O)[C@@H](F)CCN(C)C)[C@@H](NC(=O)c4ccccc4)c4ccccc4)C(C)=C1C3(C)C)[C@]1(OC(C)=O)CO[C@@H]1C[C@@H]2O.Cl` [Compound 02, 2′-O-[4-(N,N-dimethyl)amino-2(S)-fluorobutyryl]paclitaxel hydrochloride], for which the “detection of the administered derivative in the blood plasma” value (from here on “detection of the administered derivative”) in data set [1] is recorded as “cannot be detected”. Moreover, the dissociation percent was 68.2% in data set [2] (5 min); 97.5% in data set [2] (20 min); 100% in data set [2] (60 min); 59.8% in data set [3] (2 min); 95.6% in data set [3] (5 min); 100% in data set [3] (10 min).

Turning to `CC(=O)O[C@H]1C(=O)[C@@]2(C)[C@H]([C@H](OC(=O)c3ccccc3)[C@]3(O)C[C@H](OC(=O)[C@H](OC(=O)C(F)CCN(C)C)[C@@H](NC(=O)c4ccccc4)c4ccccc4)C(C)=C1C3(C)C)[C@]1(OC(C)=O)CO[C@@H]1C[C@@H]2O.Cl` (stereo partly drawn) [Compound 03, 2′-O-[4-(N,N-dimethyl)amino-2(R,S)-fluorobutyryl]paclitaxel Hydrochloride], in data set [1], the “detection of the administered derivative” value is reported as “cannot be detected”. Further, the dissociation percent in data set [2] (5 min) was found to be 75.7%; in data set [2] (20 min) it was 93.5%; in data set [2] (60 min), 100%; in data set [3] (2 min), 61.8%; in data set [3] (5 min) it was 93.1%; in data set [3] (10 min) it was 100%.

As to `CC(=O)OC12COC1CC(O)C1(C)C(=O)C(O)C3=C(C)C(OC(=O)C(OC(=O)C(F)CCN(C)C)C(NC(=O)OC(C)(C)C)c4ccccc4)CC(O)(C(OC(=O)c4ccccc4)C21)C3(C)C.Cl` [Compound 04, 2′-O-[4-(N,N-dimethyl)amino-2(R)-fluorobutyryl]docetaxel Hydrochloride], the “detection of the administered derivative” value in data set [4] is listed as “cannot be detected”. Further, the dissociation percent was 80.2% in data set [2] (5 min); 93.5% in data set [2] (20 min); 100% in data set [2] (60 min); 58.6% in data set [3] (2 min); 92.6% in data set [3] (5 min); 100% in data set [3] (10 min).

Consider `CC(=O)O[C@@]12CO[C@@H]1C[C@H](O)[C@@]1(C)C(=O)[C@H](O)C3=C(C)[C@@H](OC(=O)[C@H](OC(=O)[C@@H](F)CCN(C)C)[C@@H](NC(=O)OC(C)(C)C)c4ccccc4)C[C@@](O)([C@@H](OC(=O)c4ccccc4)[C@H]21)C3(C)C.Cl` [Compound 05, 2′-O-[4-(N,N-dimethyl)amino-2(S)-fluorobutyryl]docetaxel hydrochloride], for which the “detection of the administered derivative” value in data set [4] is recorded as “cannot be detected”. The dissociation percent is on record as 79.3% in data set [2] (5 min); 91.8% in data set [2] (20 min); 100% in data set [2] (60 min); 56.4% in data set [3] (2 min); 91.1% in data set [3] (5 min); 100% in data set [3] (10 min).

For `CC(C)c1cccc(C(C)C)c1OCOP(=O)(O)O` [Fospropofol], the “Latent Period” value in data set [5] (setting [9]) is 105 s. In addition, in data set [5] (setting [10]), the “Latent Period” value is listed as 81 s and the Persistent period is listed as 804 s.

On to `CC(C)c1cccc(C(C)C)c1O` [Propofol, reference compound], for which the “TI Rat” value in data set [6] (3 mg/ml solution) is on record as 5.5; in data set [6] (6 mg/ml solution), 4.9. The 50% effective dose (ED50) (in general, the dose that gives a 50% effect, or the effect in half of the subjects) in data set [6] (3 mg/ml solution) amounted to 3.91 mg/kg; in data set [6] (6 mg/ml solution) it was 3.5 mg/kg; in data set [8] (3 mg/ml solution) it was 7.9 mg/kg; in data set [8] (6 mg/ml solution), 11.3 mg/kg. Besides, the “Rat LD50” value worked out at 21.5 mg/kg in data set [6] (3 mg/ml solution) and 17.4 mg/kg in data set [6] (6 mg/ml solution). Besides, the “Latent Period” value is 8.4 ± 1.1 s in data set [7] (setting [11]), 8.4 ± 1.1 s in data set [7] (setting [12]) and 10.7 s in data set [5] (setting [9]). The “Persistent period” value in data set [7] (setting [11]) and in data set [7] (setting [12]) was 324.8 ± 98.9 s throughout. Moreover, the “TI Mouse” value is listed as 4.9 in data set [8] (3 mg/ml solution) and 3.8 in data set [8] (6 mg/ml solution). Further, the “Mouse LD50” value in data set [8] (3 mg/ml solution) came out at 38.4 mg/kg; in data set [8] (6 mg/ml solution), 42.9 mg/kg.
